Measured values taken from PMC12583703 (Nature Communications, 2025).

Assays:
SLC1A5 = molecular target: T1, SLC1A5 (Homo sapiens, UniProt Q15758); assay: thermal shift assay
T1 sequence (Q15758 1-541): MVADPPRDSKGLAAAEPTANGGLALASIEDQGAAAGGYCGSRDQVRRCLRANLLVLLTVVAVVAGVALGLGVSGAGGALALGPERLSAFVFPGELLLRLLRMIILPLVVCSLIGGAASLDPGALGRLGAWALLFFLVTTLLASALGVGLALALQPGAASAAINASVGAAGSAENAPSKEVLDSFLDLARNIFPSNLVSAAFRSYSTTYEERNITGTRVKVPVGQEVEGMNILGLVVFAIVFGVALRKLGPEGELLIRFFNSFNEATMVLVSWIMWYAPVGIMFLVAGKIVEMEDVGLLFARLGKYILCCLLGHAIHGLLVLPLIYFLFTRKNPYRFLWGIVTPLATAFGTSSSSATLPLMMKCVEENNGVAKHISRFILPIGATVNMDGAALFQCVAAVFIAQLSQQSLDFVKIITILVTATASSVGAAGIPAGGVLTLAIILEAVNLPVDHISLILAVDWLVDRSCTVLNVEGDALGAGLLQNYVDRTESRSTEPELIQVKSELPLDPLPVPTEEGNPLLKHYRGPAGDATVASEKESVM

SLC38A2 = molecular target: T2, SLC38A2 (Homo sapiens, UniProt Q96QD8); assay: thermal shift assay
T2 sequence (Q96QD8 1-506): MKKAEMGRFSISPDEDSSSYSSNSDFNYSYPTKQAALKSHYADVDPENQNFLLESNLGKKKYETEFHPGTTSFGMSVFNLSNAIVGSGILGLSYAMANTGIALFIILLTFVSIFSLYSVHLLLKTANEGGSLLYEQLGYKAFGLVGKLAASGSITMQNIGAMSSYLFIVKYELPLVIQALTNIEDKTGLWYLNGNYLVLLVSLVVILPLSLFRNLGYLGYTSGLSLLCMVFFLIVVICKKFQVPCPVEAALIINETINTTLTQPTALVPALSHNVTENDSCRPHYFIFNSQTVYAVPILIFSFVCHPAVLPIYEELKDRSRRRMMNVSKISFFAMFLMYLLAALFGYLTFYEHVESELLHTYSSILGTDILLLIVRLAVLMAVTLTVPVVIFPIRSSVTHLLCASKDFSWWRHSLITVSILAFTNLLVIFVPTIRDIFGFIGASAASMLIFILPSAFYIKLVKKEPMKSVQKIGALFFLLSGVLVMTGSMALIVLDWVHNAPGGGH

Cc1cccc(COc2ccccc2CN(CC[C@H](N)C(=O)O)Cc2ccccc2OCc2cccc(C)c2)c1 [V-9302]
Tm (SLC1A5): V-9302 significantly altered the Tm values of SLC1A5, SLC38A2, SLC6A19, and ANO1
Tm (SLC38A2): V-9302 significantly altered the Tm values of SLC1A5, SLC38A2, SLC6A19, and ANO1
